Where a name gives a salt, the structure may show the parent alone.

In the assay the target is Human Factor D (Homo sapiens (Human), UniProt P00746). Nature of the assay: Human Factor D Assay. It counts as biochemical. Conditions: Table 3; Human Factor D 80 nM, substrate Z-L-Lys-SBzl; read-out: IC50 (Stars). The procedure, abridged: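 Thioester cleavage assay: human Factor D (serum-derived, 80 nM final), substrate Z-L-Lys-SBzl with DTNB, both 100 μM final, after 5 min compound preincubation at room temperature.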
Sequence of Human Factor D (P00746 26-253): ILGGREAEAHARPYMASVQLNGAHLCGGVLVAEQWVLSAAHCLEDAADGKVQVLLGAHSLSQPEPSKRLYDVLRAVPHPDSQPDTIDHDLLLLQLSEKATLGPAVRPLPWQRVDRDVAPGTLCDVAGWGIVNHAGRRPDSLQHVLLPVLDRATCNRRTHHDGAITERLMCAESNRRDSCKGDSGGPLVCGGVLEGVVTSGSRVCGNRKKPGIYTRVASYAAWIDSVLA
Turning to `CC(=O)c1nn(CC(=O)N2C[C@H](F)C[C@H]2C(=O)Nc2cncc(Br)n2)c2ccc(-c3cnc(C(C)C)nc3)cc12` [Compound 389, (2S,4R)-1-(2-(3-Acetyl-5-(2-isopropylpyrimidin-5-yl)-1H-indazol-1-yl)acetyl)-N-(6-bromopyrazin-2-yl)-4-fluoropyrrolidine-2-carboxamide], the IC50 was below 1000 nM.
As for `CNc1ncc(-c2ccc3c(c2)c(C(C)=O)nn3CC(=O)N2C[C@H](F)C[C@H]2C(=O)Nc2cccc(Br)n2)cn1` [Compound 390, (2S,4R)-1-(2-(3-Acetyl-5-(2-(methylamino)pyrimidin-5-yl)-1H-indazol-1-yl)acetyl)-N-(6-bromopyridin-2-yl)-4-fluoropyrrolidine-2-carboxamide], the figure is below 1000 nM; as for `CC(=O)c1nn(CC(=O)N2C[C@H](F)C[C@H]2C(=O)Nc2cccc(Br)n2)c2ccc(-c3cnc(CC#N)nc3)cc12` [Compound 391, (2S,4R)-1-(2-(3-Acetyl-5-(2-(cyanomethyl)pyrimidin-5-yl)-1H-indazol-1-yl)acetyl)-N-(6-bromopyridin-2-yl)-4-fluoropyrrolidine-2-carboxamide], below 1000 nM.
The same measure for `CC(=O)c1nn(CC(=O)N2[C@H](C(=O)Nc3cccc(Br)n3)C[C@@]3(CO)C[C@@H]23)c2ccc(-c3cnc(C)nc3)cc12` [Compound 392, (1R,3S,5S)-2-(2-(3-Acetyl-5-(2-Methylpyrimidin-5-yl)-1H-indazol-1-yl)acetyl)-N-(6-bromopyridin-2-yl)-5-(hydroxymethyl)-2-azabicyclo[3.1.0]hexane-3-carboxamide]: below 1000 nM; for `CO[C@H]1[C@@H](C(=O)Nc2cccc(Br)n2)N(C(=O)Cn2nc(C(C)=O)c3cc(-c4cnc(C)nc4)ccc32)C[C@@H]1F` [Compound 393, (2S,3S,4S)-1-(2-(3-Acetyl-5-(2-methylpyrimidin-5-yl)-1H-indazol-1-yl)acetyl)-N-(6-bromopyridin-2-yl)-4-fluoro-3-methoxypyrrolidine-2-carboxamide]: below 1000 nM.
As for `COc1ccc(NC(=O)[C@@H]2C[C@@H](F)CN2C(=O)Cn2nc(C(C)=O)c3cc(-c4cnc(C)nc4)ccc32)nc1Br` [Compound 394, (2S,4R)-1-(2-(3-Acetyl-5-(2-methylpyrimidin-5-yl)-1H-indazol-1-yl)acetyl)-N-(6-bromo-5-methoxypyridin-2-yl)-4-fluoropyrrolidine-2-carboxamide], the figure is below 1000 nM; as for `CC(=O)c1nn(CC(=O)N2C[C@@](F)(CN)C[C@H]2C(=O)Nc2cccc(Br)n2)c2ccc(-c3cnc(C)nc3)cc12` [Compound 395, (2S,4S)-1-(2-(3-Acetyl-5-(2-methylpyrimidin-5-yl)-1H-indazol-1-yl)acetyl)-4-(aminomethyl)-N-(6-bromopyridin-2-yl)-4-fluoropyrrolidine-2-carboxamide], below 1000 nM; as for `COC(=O)c1cc(Cl)nc(NC(=O)[C@@H]2C[C@@H](F)CN2C(=O)Cn2nc(C(C)=O)c3cc(-c4cnc(C)nc4)ccc32)c1` [Compound 396, Methyl 2-((2S,4R)-1-(2-(3-Acetyl-5-(2-methylpyrimidin-5-yl)-1H-indazol-1-yl)acetyl)-4-fluoropyrrolidine-2-carboxamido)-6-chloroisonicotinate], below 1000 nM.
As to `CC(=O)c1nn(CC(=O)N2C[C@H](F)C[C@H]2C(=O)Nc2ccc(F)c(Br)n2)c2ccc(-c3cnc(C)nc3)cc12` [Compound 397, (2S,4R)-1-(2-(3-Acetyl-5-(2-methylpyrimidin-5-yl)-1H-indazol-1-yl)acetyl)-N-(6-bromo-5-fluoropyridin-2-yl)-4-fluoropyrrolidine-2-carboxamide], the IC50 was below 1000 nM.
As for `CC(=O)c1nn(CC(=O)N2C[C@H](F)C[C@H]2C(=O)Nc2cncc(Br)n2)c2ccc(-c3cnc(CO)nc3)cc12` [Compound 398, (2S,4R)-1-(2-(3-Acetyl-5-(2-(hydroxymethyl)pyrimidin-5-yl)-1H-indazol-1-yl)acetyl)-N-(6-bromopyrazin-2-yl)-4-fluoropyrrolidine-2-carboxamide], the figure is below 1000 nM.
The same measure for `CC(=O)c1nn(CC(=O)N2CC(F)(CN)C[C@H]2C(=O)Nc2cccc(Br)n2)c2ccc(-c3cnc(C)nc3)cc12` (stereo partly drawn) [Compound 399, (2S)-1-(2-(3-acetyl-5-(2-methylpyrimidin-5-yl)-1H-indazol-1-yl)acetyl)-4-(aminomethyl)-N-(6-bromopyridin-2-yl)-4-fluoropyrrolidine-2-carboxamide]: below 1000 nM; for `CC(=O)c1nn(CC(=O)N2C[C@H](F)C[C@H]2C(=O)Nc2ccn(CC(F)F)n2)c2ccc(-c3cnc(C)nc3)cc12` [Compound 401, (2S,4R)-1-(2-(3-Acetyl-5-(2-methylpyrimidin-5-yl)-1H-indazol-1-yl)acetyl)-N-(1-(2,2-difluoroethyl)-1H-pyrazol-3-yl)-4-fluoropyrrolidine-2-carboxamide]: below 1000 nM; for `CC(=O)c1nn(CC(=O)N2C[C@H](F)C[C@H]2C(=O)Nc2ccc(C)c(Br)n2)c2ccc(-c3cnc(C)nc3)cc12` [Compound 402, (2S,4R)-1-(2-(3-Acetyl-5-(2-methylpyrimidin-5-yl)-1H-indazol-1-yl)acetyl)-N-(6-bromo-5-methylpyridin-2-yl)-4-fluoropyrrolidine-2-carboxamide]: below 1000 nM.
Regarding `CC(=O)c1nn(CC(=O)N2C[C@H](F)C[C@H]2C(=O)Nc2cccc(Br)n2)c2ccc(-c3cnc(CNC(=O)OC(C)(C)C)nc3)cc12` [Compound 403, tert-butyl ((5-(3-Acetyl-1-(2-((2S,4R)-2-((6-bromopyridin-2-yl)carbamoyl)-4-fluoropyrrolidin-1-yl)-2-oxoethyl)-1H-indazol-5-yl)pyrimidin-2-yl)methyl)carbamate], the 50% inhibitory concentration (IC50) was below 1000 nM.
The same measure for `CC(=O)c1nn(CC(=O)N2C[C@H](F)C[C@H]2C(=O)Nc2cccc(Br)n2)c2ccc(-c3cnc(CN)nc3)cc12` [Compound 404, (2S,4R)-1-(2-(3-Acetyl-5-(2-(aminomethyl)pyrimidin-5-yl)-1H-indazol-1-yl)acetyl)-N-(6-bromopyridin-2-yl)-4-fluoropyrrolidine-2-carboxamide hydrochloride]: below 1000 nM.
The same measure for `CC(=O)c1nn(CC(=O)N2C[C@H](F)C[C@H]2C(=O)Nc2nc(Br)ccc2C)c2ccc(-c3cnc(C)nc3)cc12` [Compound 405, (2S,4R)-1-(2-(3-Acetyl-5-(2-methylpyrimidin-5-yl)-1H-indazol-1-yl)acetyl)-N-(6-bromo-3-methylpyridin-2-yl)-4-fluoropyrrolidine-2-carboxamide]: below 1000 nM.
The same measure for `CC(=O)NCc1ncc(-c2ccc3c(c2)c(C(C)=O)nn3CC(=O)N2C[C@H](F)C[C@H]2C(=O)Nc2cccc(Br)n2)cn1` [Compound 406, (2S,4R)-1-(2-(5-(2-(Acetamidomethyl)pyrimidin-5-yl)-3-acetyl-1H-indazol-1-yl)acetyl)-N-(6-bromopyridin-2-yl)-4-fluoropyrrolidine-2-carboxamide]: below 1000 nM; for `CC(=O)c1nn(CC(=O)N2C[C@H](F)C[C@H]2C(=O)Nc2ccc(F)cn2)c2ccc(-c3cnc(C)nc3)cc12` [Compound 407, (2S,4R)-1-(2-(3-Acetyl-5-(2-methylpyrimidin-5-yl)-1H-indazol-1-yl)acetyl)-4-fluoro-N-(5-fluoropyridin-2-yl)pyrrolidine-2-carboxamide]: below 1000 nM.

As usually defined, the IC50 is the concentration that gives 50% inhibition.

(Values after patent publication US10287301B2 (Achillion Pharmaceuticals, Inc., priority 2015, dated 2019).)
